For one experiment, the target named is T1, E. coli LysRS (Escherichia coli, UniProt P0A8N3).
T1 sequence (P0A8N3 2-505): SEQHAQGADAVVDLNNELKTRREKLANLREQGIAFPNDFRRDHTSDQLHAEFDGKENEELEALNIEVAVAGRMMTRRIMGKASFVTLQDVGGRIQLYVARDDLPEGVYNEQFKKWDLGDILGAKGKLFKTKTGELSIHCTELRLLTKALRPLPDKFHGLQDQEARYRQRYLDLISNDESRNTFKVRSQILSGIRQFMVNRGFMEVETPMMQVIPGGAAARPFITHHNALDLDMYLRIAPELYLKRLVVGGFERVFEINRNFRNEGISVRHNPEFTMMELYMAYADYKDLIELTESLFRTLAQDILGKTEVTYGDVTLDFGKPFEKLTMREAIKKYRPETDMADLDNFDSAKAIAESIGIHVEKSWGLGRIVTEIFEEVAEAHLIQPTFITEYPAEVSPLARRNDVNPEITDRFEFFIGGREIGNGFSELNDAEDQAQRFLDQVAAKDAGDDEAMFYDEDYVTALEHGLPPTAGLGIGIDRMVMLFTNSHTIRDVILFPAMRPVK
Nature of the experiment: amino acid activation. Particulars: analog 25 mM; ATP. Format: biochemical.

The target of another experiment is T2, GenX (PoxA, YjeA) (Escherichia coli, UniProt P0A8N7).
T2 sequence (P0A8N7 1-325): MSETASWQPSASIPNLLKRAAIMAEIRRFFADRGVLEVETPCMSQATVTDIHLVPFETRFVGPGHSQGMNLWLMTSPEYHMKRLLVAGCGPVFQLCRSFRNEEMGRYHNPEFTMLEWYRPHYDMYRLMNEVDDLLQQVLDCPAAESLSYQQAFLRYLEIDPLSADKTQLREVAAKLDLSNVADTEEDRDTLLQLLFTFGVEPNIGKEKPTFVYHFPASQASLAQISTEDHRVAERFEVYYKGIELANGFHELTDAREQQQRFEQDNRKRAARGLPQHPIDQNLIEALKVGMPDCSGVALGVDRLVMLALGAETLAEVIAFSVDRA
Description: inhibition of lysine activation, ATP-[…]PPi exchange. Format: biochemical.

As a reminder, the Ki is the equilibrium dissociation constant of an inhibitor or competing ligand from its target. Low readings indicate tighter binding, high ones weaker binding.

For the molecule `NCCSC[C@H](N)C(=O)O` [compound 1, S-(2-aminoethyl)-L-cysteine], the amino acid activation entry on E. coli LysRS is reported as “E. coli LysRS readily activates S-(2-aminoethyl)-L-cysteine (AEC), ornithine”.
The molecule `NCCCC[C@H](N)C(=O)NO` [compound 2, L-lysine hydroxamate] came in with a Ki at GenX (PoxA, YjeA) of 150 µM.
On the same count and under the same terms, in the case of `NCCCC[C@H](N)C(N)=O` [compound 3, lysinamide] it was 280 µM.
